# “Also recorded” adds a separate entry of the source. Where two headings read alike, the source gives them in different places.
# Key:
# DENVGFP [1] = assay: Time-of-drug-addition and -removal assays, DENVGFP in Huh7 cells; assay type: cell-based, dengue virus (DENV); settings: for infection after removal of compound 2 hpi vs continuous treatment: Huh7, treated 2 h prior to infection, removed 2 hpi, microscopy; for time of drug addition: effect on DENVGFP-infected Huh7 cells 72 hpi / time of drug removal: inhibition of DENVGFP replication: cherylline 50 μM
# Experimental: For the time-of-drug-addition assay, at the time of infection, AAs were added in wells corresponding to 0 h. At 2 hpi, viral inoculum was removed from every well, and AAs were added back to wells corresponding to 0 h and 2 h. At 4, 7, 12, and 24 hpi, AAs or DMSO diluted in DMEM was added to the appropriate wells. After 72 h, cells were trypsinized and fixed in 4% formaldehyde to measure the percentage of infected cells on an FC500 MPL cytometer. Alternatively, pictures of Hoechst 33342-stained cells were acquired on an Axio Observer microscope. All assays were performed in triplicate.
# At 2 hpi, plates were washed, and medium was replaced to remove remaining viruses in the supernatant. AAs were added back to all wells, except the ones corresponding to 2 h of treatment, in which fresh medium exclusive of any AA was added. Accordingly, after 4, 7, and 12 h of infection, the supernatant was replaced by fresh medium in corresponding wells. After 72 h of incubation, results were acquired as for the time-of-drug-addition assay. All assays were performed in triplicate.
# ZIKV MR766 = assay: Plaque assay, infectious titers of WT ZIKV MR766 from Huh7.5 cells; assay type: cell-based, Zika virus (ZIKV); settings: treated 2 hpi, supernatant 48 h later
# Huh7 cells = assay: XTT cytotoxicity assay in Huh7 cells; assay type: cell-based, human; settings: 0.4 to 400 μM, 72 hours
# Experimental: Cytotoxicity properties were titrated by metabolism monitoring using the XTT [2,3-bis-(2-methoxy-4-nitro-5-sulfophenyl)-2H-tetrazolium-5-carboxanilide] assay kit (Roche, Millipore Sigma), as described before ([24]). Briefly, Huh7 cells were seeded at 10 × 10^3 cells per well in 96-well plates. […] After 72 h of incubation, medium was replaced by phenol-free DMEM (Wisent) containing 0.3 mg/ml XTT, and cells were incubated for 4 h. Absorbance was measured at 450nm using a microplate spectrophotometer (Synergy H1, Biotek). Treatment conditions with 0.5% DMSO were used as the reference control. The percentage of cell viability was calculated at each concentration.
# ZIKVR2A [2] = assay: microbe, parasite or virus in culture; settings: Zika virus, Huh7.5, read-out: EC50 (μM) for ZIKVR2A, Huh7.5 cells, luciferase at 48 hpi
# ZIKV H/PF/2013 [3] = assay: Plaque assay, infectious titers of WT ZIKV H/PF/2013 from Huh7.5 cells; assay type: cell-based, Zika virus (ZIKV); settings: treated 2 hpi, supernatant 48 h later
# [4] = Cell viability (ATP, Cell-Titer GLO) in Huh7.5 cells; assay type: cell-based; settings: human
# Experimental: Where indicated for Huh7.5 and Vero E6 cells and PBMCs, cell viability was measured by monitoring of cellular ATP levels using the Cell-Titer GLO assay kit (Promega). Briefly, 10× 10^3 to 20 × 10^3 cells in 50 to 100 μl were seeded in 48-well or 96-well plates and cultured overnight. AAs were added at the designated concentrations for 24 or 48 h, as specified in the text. Then, 50 to 100 μl of room temperature Cell-Titer GLO reagent was added in each well to room temperature-equilibrated cell plates. Plates were rocked for 2 min and rested for 10 min, and the luminescence signal was measured using a microplate spectrophotometer (Biotek Synergy H1 or Tecan Spark multimode microplate reader). Viability was expressed as a fold change calculated using the value of DMSO-treated cells at each concentration; for each AA and CC50, values were determined.
# [5] = system: VSV-G pseudotyped HIV-1GFP; assay type: cell-based
# DENV2 16881s = assay: Plaque assay, infectious titers of WT DENV2 16881s from Huh7.5 cells; assay type: cell-based, dengue virus (DENV); settings: treated 2 hpi, supernatant 48 h later; for production of DENV infectious particles (words): AAs 50 μM
# Experimental: Huh7.5 cells were infected with DENV 16881s, ZIKV H/PF/2013, or ZIKV MR766 (MOI, 0.1) or left uninfected. […] Supernatants were harvested 2 days pi, and PFU were determined by plaque assay on VeroE6 cells. Cells incubated overnight (2 × 10^5 cells/well in 24-well plates) were infected with 10-fold serially diluted virus-containing supernatants for 2 h at 37°C. Inoculum was then replaced with MEM (Life Technologies) containing 1.5% carboxymethylcellulose (Millipore-Sigma). ZIKV- and DENV-infected cells were incubated for 5 and 7 days, respectively. One volume of 10% formaldehyde was added to the cells for fixation. Two hours later, cells were washed with tap water and stained with a 1% crystal violet/10% ethanol solution for 30 min. Wells were rinsed with tap water, and the number of plaques were counted to calculate virus titers.
# DENVR2A [6] = assay: microbe, parasite or virus in culture; settings: Dengue virus, Huh7.5, read-out: EC50 (μM) for DENVR2A
# DENVR2A [7] = settings: CC50/EC50, Huh7.5
# ZIKVR2A [8] = settings: for SI ZIKVR2A (therapeutic selectivity index): CC50/EC50, Huh7.5
# ZIKV H/PF/2013 [9] = assay: Viral RNA levels by RT-qPCR, ZIKV; assay type: cell-based, Zika virus (ZIKV); settings: 12 and 24 h; MOI 2, Huh7.5, 50 μM
# [10] = system: interferon-sensitive response element (ISRE) transcription; assay: Type I IFN activation assay (ISRE-luciferase) in LL171 cells; assay type: cell-based, Murine; settings: 50 μM, 24 h
# Experimental: In vitro type I IFN activation was measured in LL171 cells using the luciferase assay system kit (Promega). Briefly, 200 μl LL171 reporter cells (L929 cells expressing an IFN stimulated response element [ISRE]-luciferase) were seeded at 1.5 × 10^4 cells/well in 96-well plates and cultured for 16 h. Medium was replaced with DMEM containing cherylline for 24 h. Supernatant was removed, cells were rinsed with PBS, and lysis buffer was added (luciferase assay reagent; Promega). Then, cells were scraped and transferred into opaque 96-well plates. LAR (luciferase assay reagent; Promega) was added to each well, and luminescence was measured at 480 nm using a microplate spectrophotometer (Synergy H1). 5,6-dimethylxanthenone-4-acetic acid (DMXAA, 20 μg/ml) was used as a positive control. All assays were performed in triplicate.
# DENVGFP and DENV2 16881s = assay: Viral RNA levels by RT-qPCR, DENV; assay type: cell-based, dengue virus (DENV); settings: 12 and 24 h; DENVGFP MOI 0.5 Huh7 25 μM; DENV2 16881s MOI 2 Huh7.5 50 μM
# DENVGFP [11] = assay: DENVGFP reporter virus infection of Huh7 cells (flow cytometry / microscopy); settings: for EC50: Dengue virus, Huh-7, read-out: EC50, DENVGFP infection; for DENVGFP infected cells by microscopy: MOI 0.15, 72 hpi; for anti-DENV activity in screening (GFP microscopy, words): Huh7, treated 2 h before DENVGFP MOI 0.15, 72 hpi, at the chosen concentration
# DENVGFP [12] = assay: DENVGFP infection of PBMCs with antibody-dependent enhancement (flow cytometry); settings: 30 μM
smiles,measurement,setting,value
"O[C@H]1C=C[C@@]23CCN(Cc4cc5c(cc42)OCO5)[C@@H]3C1 [Crinine, crinine]",infection after removal of compound 2 hpi vs continuous treatment,DENVGFP [1],restored virus replication completely
"COc1cc2c(cc1O)CN(C)C[C@H]2c1ccc(O)cc1 [Cherylline, cherylline]",decrease in WT ZIKV MR766 replication,ZIKV MR766; AAs 50 μM,8 fold
same,decrease in ZIKV MR766 viral titer,ZIKV MR766; AAs 50 μM,88%
same,cytotoxic activity of AAs,Huh7 cells,cytotoxic
same,EC50,ZIKVR2A [2],20.3 µM
same,decrease in ZIKV H/PF/2013 viral titer,ZIKV H/PF/2013 [3]; AAs 50 μM,100 fold
same,CC50 at 48 h,[4],> 250 µM
same,HIV-1 infection,[5],no effect; also recorded: did not affect HIV-1 infection; also recorded: did not detect any antiretroviral activity
same,infection after removal of compound 2 hpi vs continuous treatment,DENVGFP [1],restored virus replication completely
same,time of drug addition: effect on DENVGFP-infected Huh7 cells 72 hpi,"DENVGFP [1]; added at 24 hpi, NITD008 10 μM",lost one-third of its inhibitory potential
same,time of drug addition: effect on DENVGFP-infected Huh7 cells 72 hpi,DENVGFP [1]; added at 12 hpi,some cherylline antiviral activity was lost
same,time of drug addition: effect on DENVGFP-infected Huh7 cells 72 hpi,DENVGFP [1]; added between 0 and 7 hpi,entirely blocked viral replication
same,time of drug removal: inhibition of DENVGFP replication,DENVGFP [1]; present for the first 12 h,successfully impaired DENV replication
same,time of drug removal: inhibition of DENVGFP replication,"DENVGFP [1]; removed at 2, 4, or 7 hpi",inhibition of viral replication was lost
same,decrease in DENV 16881s viral titers,DENV2 16881s; 50 μM,17 fold
same,EC50,DENVR2A [6],8.8 µM
same,SI DENVR2A (therapeutic selectivity index),DENVR2A [7],>28
same,SI ZIKVR2A (therapeutic selectivity index),ZIKVR2A [8],>12.3
same,EC50,"ZIKVR2A [8]; read-out: EC50 (μM) for ZIKVR2A, Huh7.5 cells, luciferase at 48 hpi",20.3 µM
same,viral RNA levels (RT-qPCR),ZIKV H/PF/2013 [9],decrease in viral RNA levels
same,"type I interferon (IFN) induction, ISRE transcription",[10],did not trigger a significant amount of type I interferon
same,viral RNA levels (RT-qPCR),DENVGFP and DENV2 16881s,decrease in viral RNA levels
same,EC50,DENVGFP [11],8 µM
same,DENVGFP infected cells by microscopy,"DENVGFP [11]; Huh7, 0.4 μM",no apparent difference with the control
same,DENVGFP infected cells by microscopy,"DENVGFP [11]; Huh7, 2 μM",most of the cells were infected
same,DENVGFP infected cells by microscopy,"DENVGFP [11]; Huh7, 10 μM",Several foci of infected cells became visible
same,DENVGFP infected cells by microscopy,"DENVGFP [11]; Huh7, 50 μM",no detectable infection; also recorded: no infected cells were observed
same,median GFP+ cells,"DENVGFP [12]; MOI 2, 72 hpi",0.1%
same,decrease in the percentage of GFP+ cells,"DENVGFP [12]; MOI 2, 72 h",5.3 fold
"NC(=O)c1ncn([C@@H]2O[C@H](CO)[C@@H](O)[C@H]2O)n1 [ribavirin, reference compound]",EC50,DENVGFP [11],100 µM
"OC1CC2N3CCC2(c2cc4c(cc2C3)OCO4)C2OC12 (centres unmarked) [Flexinine, flexinine]",production of ZIKV MR766 infectious particles (words),ZIKV MR766,marginal effects on ZIKV production; also recorded: little effect
same,EC50,ZIKVR2A [2],216 µM
same,production of ZIKV H/PF/2013 infectious particles (words),ZIKV H/PF/2013 [3],marginal effects on ZIKV production; also recorded: little effect
same,CC50 at 48 h,[4],> 250 µM
same,infection after removal of compound 2 hpi vs continuous treatment,DENVGFP [1],restored virus replication completely
same,production of DENV infectious particles (words),DENV2 16881s,no effects on DENV production; also recorded: little effect
same,EC50,DENVR2A [6],63.4 µM
same,SI DENVR2A (therapeutic selectivity index),DENVR2A [7],>3.9
same,SI ZIKVR2A (therapeutic selectivity index),ZIKVR2A [8],>1.15
same,ZIKVR2A replication,ZIKVR2A [8]; Huh7.5 cells,did not significantly impact ZIKVR2A replication
same,"anti-DENV activity in screening (GFP microscopy, words)",DENVGFP [11],moderate
"COc1cc2c(cc1OC)[C@@H](c1ccc(O)cc1)CN(C)C2 [Gigantelline, gigantelline]","anti-DENV activity in screening (GFP microscopy, words)",DENVGFP [11],weak
"COc1ccc([C@@H]2CN(C)Cc3cc(O)c(OC)cc32)cc1O [Gigantellinine, gigantellinine]",production of ZIKV MR766 infectious particles (words),ZIKV MR766,little effect
same,production of ZIKV MR766 infectious particles (words),ZIKV MR766; listed as gigantellinine,marginal effects on ZIKV production
same,EC50,ZIKVR2A [2],> 250 µM
same,production of ZIKV H/PF/2013 infectious particles (words),ZIKV H/PF/2013 [3],little effect
same,production of ZIKV H/PF/2013 infectious particles (words),ZIKV H/PF/2013 [3]; listed as gigantellinine,marginal effects on ZIKV production
same,CC50 at 48 h,[4],> 250 µM
same,infection after removal of compound 2 hpi vs continuous treatment,DENVGFP [1],restored virus replication completely
same,production of DENV infectious particles (words),DENV2 16881s,little effect
same,production of DENV infectious particles (words),DENV2 16881s; listed as gigantellinine,no effects on DENV production
same,EC50,DENVR2A [6],105 µM
same,SI DENVR2A (therapeutic selectivity index),DENVR2A [7],>2.3
same,ZIKVR2A replication,ZIKVR2A [8]; Huh7.5 cells,did not significantly impact ZIKVR2A replication
same,"anti-DENV activity in screening (GFP microscopy, words)",DENVGFP [11],moderate
"CN1CC[C@@]23C=C[C@H](O)C[C@@H]2Oc2c(O)ccc(c23)C1 [Sanguinine, sanguinine]",infection after removal of compound 2 hpi vs continuous treatment,DENVGFP [1],restored virus replication completely
same,"anti-DENV activity in screening (GFP microscopy, words)",DENVGFP [11],very weak
"O=c1c2cc3c(cc2c2cccc4ccn1c42)OCO3 [Hippadine, hippadine]",production of ZIKV MR766 infectious particles (words),ZIKV MR766,little effect
same,cytotoxic activity of AAs,Huh7 cells,cytotoxic
same,EC50,ZIKVR2A [2],114 µM
same,decrease in ZIKV H/PF/2013 viral titer,ZIKV H/PF/2013 [3]; AAs 50 μM,3 fold
same,decrease in ZIKV H/PF/2013 viral titers,ZIKV H/PF/2013 [3]; AAs 50 μM,70%
same,CC50 at 48 h,"[4]; Huh7.5 cells, Huh7.5, ATP, 48 h posttreatment, read-out: CC50",176 µM
same,infection after removal of compound 2 hpi vs continuous treatment,DENVGFP [1],restored virus replication completely
same,production of DENV infectious particles (words),DENV2 16881s,little effect
same,production of DENV infectious particles (words),DENV2 16881s; listed as hippadine,no effects on DENV production
same,EC50,DENVR2A [6],73.8 µM
same,SI DENVR2A (therapeutic selectivity index),DENVR2A [7],2.38
same,SI ZIKVR2A (therapeutic selectivity index),ZIKVR2A [8],1.54
same,ZIKVR2A replication,ZIKVR2A [8]; Huh7.5 cells,did not significantly impact ZIKVR2A replication
same,"anti-DENV activity in screening (GFP microscopy, words)",DENVGFP [11],moderate
